Experimental data taken from patent US20130122024A1, “NEW BINDER-DRUG CONJUGATES (ADCS) AND USE THEREOF” (Bayer Intellectual Property GmbH, priority 2011, published 2013).
“Also recorded” adds a separate entry of the source. Structures can show the parent of a compound that is named as a salt. Square brackets hold non-standard residues; d marks the D form. Peptide text beside a SMILES is read from it. * marks the point of attachment. X1 = CC(C)[C@@H](C(=O)*)N(C)CCCCCC(=O)NCCCC[C@H](N)C(=O)O; Dolaproine = CO[C@@H]([C@@H]1CCCN1)[C@@H](C)C(=O)O; Dil = CC[C@H](C)[C@H](NC)[C@@H](CC(=O)O)OC; X5 = C[C@@H](N*)[C@@H](O)c1ccccc1; Oxazinan2yl(1,2) = C1CCN(*)OC1; NMeV = CN[C@H](C(=O)O)C(C)C

B1: Example 71 immunoconjugate (MF-Ta ADC) (antibody, human IgG1, lambda, V domains shown)
VH: QVELVQSGAEVKKPGESLKISCKGSGYSFTSYWIGWVRQAPGKGLEWMGIIDPGDSRTRYSPSFQGQVTISADKSISTAYLQWSSLKASDTAMYYCARGQLYGGTYMDGWGQGTLVTVSS
VL: DIALTQPASVSGSPGQSITISCTGTSSDIGGYNSVSWYQQHPGKAPKLMIYGVNNRPSGVSNRFSGSKSGNTASLTISGLQAEDEADYYCSSYDIESATPVFGGGTKLTVLG
modifications: auristatin linker-toxophore on cysteine sulphur

What was measured:
tubulin = assay: Fluorescence-based microtubule (tubulin) polymerization assay; format: biochemical
Experimental: Tubulin polymerization was investigated using the “Fluorescence-based Microtubule Polymerisation Assay Kit” from Cytoskeleton (Denver, Colo., USA; order number: BK011). With this assay, GTP is added to unpolymerized tubulin, allowing polymerization to take place spontaneously. The assay is based on the binding of the fluorophore 4′,6-di-amidino-2-phenylindole (DAPI) to tubulin. Free and bound DAPI can be differentiated on the basis of different emission spectra.
[…] In addition to the buffer control, paclitaxel, with a polymerization-increasing effect, and vinblastin, with a polymerization inhibiting effect, were run additionally as assay controls. Measurement was carried out using 96-well plates with a half base area. The kinetics of the tubulin polymerization were monitored in a Fluorimeter at 37° C. for 1 hour. The excitation wavelength was 355 nm, and emission was monitored at 460 nm. For the region of linear increase within the first 10 minutes, a calculation was made of the change in fluorescence per minute (ΔF/min), which represents the polymerization rate of the microtubuli. The potency of the test substances was quantified on the basis of their respective reduction of the polymerization rate.
The reduction in the tubulin polymerization rate occurs in dependence on the concentration of the test substance added.

Caco-2 cells = assay: Caco-2 flux assay for cell permeability; format: in vitro ADME; conditions: 2 hours, B to A
Experimental: (§1) The cell permeability of a substance can be investigated by means of in vitro testing in a flux assay using Caco-2 cells [M. D. Troutman and D. R. Thakker, Pharm. Res. 20 (8), 1210-1224 (2003)]. For this purpose, the cells were cultured for 15-16 days on 24-well filter plates. For the determination of permeation, the respective working example was applied in a HEPES buffer to the cells either apically (A) or basally (B) and incubated for 2 hours. After 0 hours and after 2 hours, samples were taken from the cis and trans compartments. The samples were separated by HPLC (Agilent 1200, Böblingen, Germany) using reverse phase columns. The HPLC system was coupled via a Turbo Ion Spray Interface to a Triple Quadropol mass spectrometer API 4000 (Applied Biosystems Applera, Darmstadt, Germany). The permeability was evaluated on the basis of a Papp value, which was calculated using the formula published by Schwab et al. [D. Schwab et al., J. Med. Chem. 46, 1716-1725 (2003)].

[1] = Caco-2 flux assay for cell permeability; format: in vitro ADME; conditions: human, Caco-2 cells, B to A
Experimental: as §1

Mesothelin = Mesothelin (Homo sapiens, UniProt Q13421-3 37-598, GPI anchor); assay: cell-based or functional assay
[2] = concentration of toxophore 10 μM
[3] = concentration of toxophore 1 μM

Molecule | Tubulin polymerization in the presence of toxophore in [%]. Tubulin polymerization rate at 1 μM MMAF set at 100% (tubulin; [2]) | Papp (B-A) (Caco-2 cells) | Tubulin polymerization in the presence of toxophore in [%]. Tubulin polymerization rate at 1 μM MMAF set at 100% (tubulin; [3]) | also measured
CC[C@H](C)[C@@H]([C@@H](CC(=O)N1CCC[C@H]1[C@H](OC)[C@@H](C)C(=O)N[C@@H](Cc1c[nH]c2ccccc12)C(=O)NCc1ccccc1)OC)N(C)C(=O)[C@@H](NC(=O)[C@H](C(C)C)N(C)CCCC(=O)NNC(=O)CCCCCN1C(=O)CC(SC[C@H](N)C(=O)O)C1=O)C(C)C (stereo partly drawn) [Example 68, N-(4-{2-[6-(3-{[(2R)-2-Amino-2-carboxyethyl]sulphanyl}-2,5-dioxopyrrolidin-1-yl)hexanoyl]hydrazino}-4-oxobutyl)-N-methyl-L-valyl-N-[(3R,4S,5S)-1-{(2S)-2-[(1R,2R)-3-{[(2S)-1-(benzylamino)-3-(1H-indol-3-yl)-1-oxopropan-2-yl]amino}-1-methoxy-2-methyl-3-oxopropyl]pyrrolidin-1-yl}-3-methoxy-5-methyl-1-oxoheptan-4-yl]-N-methyl-L-valinamide] | 45% | 0.7 ×10⁻⁶ cm/s |  | 
CC[C@H](C)[C@@H]([C@@H](CC(=O)N1CCC[C@H]1[C@H](OC)[C@@H](C)C(=O)N[C@@H](Cc1c[nH]c2ccccc12)C(=O)N1CCCCO1)OC)N(C)C(=O)[C@@H](NC(=O)[C@H](C(C)C)N(C)CCCCCC(=O)NCCCC[C@H](N)C(=O)O)C(C)C [Example 105, N-(6-{[(5S)-5-Amino-5-carboxypentyl]amino}-6-oxohexyl)-N-methyl-L-valyl-N-[(3R,4S,5S)-1-{(2S)-2-[(1R,2R)-3-{[(2S)-3-(1H-indol-3-yl)-1-(1,2-oxazinan-2-yl)-1-oxopropan-2-yl]amino}-1-methoxy-2-methyl-3-oxopropyl]pyrrolidin-1-yl}-3-methoxy-5-methyl-1-oxoheptan-4-yl]-N-methyl-L-valinamide trifluoroacetate] (X1-V[Dil][Dolaproine]W-{Oxazinan2yl(1,2)}) | 1% | 0.2 ×10⁻⁶ cm/s | 45% | 
CC[C@H](C)[C@@H]([C@@H](CC(=O)N1CCC[C@H]1[C@H](OC)[C@@H](C)C(=O)N[C@@H](Cc1c[nH]c2ccccc12)C(=O)O)OC)N(C)C(=O)[C@@H](NC(=O)[C@H](C(C)C)N(C)CCCCCC(=O)NCCCC[C@H](N)C(=O)O)C(C)C [Example 106, N-(6-{[(5S)-5-Amino-5-carboxypentyl]amino}-6-oxohexyl)-N-methyl-L-valyl-N-[(3R,4S,5S)-1-{(2S)-2-[(1R,2R)-3-{[(1S)-1-carboxy-2-(1H-indol-3-yl)ethyl]amino}-1-methoxy-2-methyl-3-oxopropyl]pyrrolidin-1-yl}-3-methoxy-5-methyl-1-oxoheptan-4-yl]-N-methyl-L-valinamide] (X1-V[Dil][Dolaproine]W-OH) | 14% | 0.1 ×10⁻⁶ cm/s | 80% | 
CC[C@H](C)[C@@H]([C@@H](CC(=O)N1CCC[C@H]1[C@H](OC)[C@@H](C)C(=O)N[C@@H](Cc1ccc(O)cc1)C(=O)N1CCCCO1)OC)N(C)C(=O)[C@@H](NC(=O)[C@H](C(C)C)N(C)CCCCCC(=O)NCCCC[C@H](N)C(=O)O)C(C)C [Example 117, N-(6-{[(5S)-5-Amino-5-carboxypentyl]amino}-6-oxohexyl)-N-methyl-L-valyl-N-[(3R,4S,5S)-1-{(2S)-2-[(1R,2R)-3-{[(2S)-3-(4-hydroxyphenyl)-1-(1,2-oxazinan-2-yl)-1-oxopropan-2-yl]amino}-1-methoxy-2-methyl-3-oxopropyl]pyrrolidin-1-yl}-3-methoxy-5-methyl-1-oxoheptan-4-yl]-N-methyl-L-valinamide trifluoroacetate] (X1-V[Dil][Dolaproine]Y-{Oxazinan2yl(1,2)}) | 21% | 0.15 ×10⁻⁶ cm/s | 88% | 
CC[C@H](C)[C@@H]([C@@H](CC(=O)N1CCC[C@H]1[C@H](OC)[C@@H](C)C(=O)N[C@H](C)[C@@H](O)c1ccccc1)OC)N(C)C(=O)[C@@H](NC(=O)[C@@H](NC)C(C)C)C(C)C [MMAE, monomethylauristatin E, reference compound] (H-[NMeV]V[Dil][Dolaproine]-X5) |  |  |  | Papp B→A at 2 h [1]: 7.3 ×10⁻⁶ cm/s
CC[C@H](C)[C@@H]([C@@H](CC(=O)N1CCC[C@H]1[C@H](OC)[C@@H](C)C(=O)N[C@@H](Cc1ccccc1)C(=O)O)OC)N(C)C(=O)[C@@H](NC(=O)[C@@H](NC)C(C)C)C(C)C [MMAF, Monomethylauristatin F, reference compound] (H-[NMeV]V[Dil][Dolaproine]F-OH) | 34% | 7.3 ×10⁻⁶ cm/s | 100% | reduction in the polymerization rate (tubulin; 1 μM): 40-45%; effect on tubulin polymerization (tubulin; 100 μM): complete cessation of polymerization; also recorded: inhibited completely; Tubulin polymerization in the presence of toxophore in [%]. Tubulin polymerization rate at 1 μM MMAF set at 100% (tubulin; concentration of toxophore 100 μM): 0%
B1 |  |  |  | HT29 meso+ IC50 [nM] (MTT proliferation) (Mesothelin): 22 nM
